Experimental data reported in patent US5164507A, “Antibiotic pyridine compound” (Meiji Seika Kaisha Ltd., priority 1990, dated 1992).
Counter-ions that a name gives are not always drawn.

Experiments:
[1] = tested on: Candida glabrata IFO-0005; assay: MIC (minimum growth inhibitory concentration) on test microorganisms; assay type: cell-based; details: Nakaseomyces glabratus, IFO0005
Text: (§1) Minimum growth inhibitory concentrations (MIC) of a hydrochloride of substance SF 2698 on various test microorganisms are shown in Table 1 below.

[2] = tested on: Candida glabrata IFO-0622; assay: as above; assay type: cell-based; details: Nakaseomyces glabratus, IFO0622
Text: as §1

Candida utilis M9007 = assay: as above; assay type: cell-based; details: Williopsis jadinii
Text: as §1

[3] = tested on: Cryptococcus neoformans M9010; assay: as above; assay type: cell-based
Text: as §1

Candida albicans M9001 = assay: as above; assay type: cell-based
Text: as §1

mice = assay: toxicity by intravenous injection to mice; assay type: in vivo; details: dose of 100 mg/kg
Text: Further, toxicity of a hydrochloride of substance SF2698 was examined by administering to mice the test compound by intravenous injection.

eumycetes = assay: antimicrobial activity (Table 1, summary); assay type: cell-based; details: against certain kinds of eumycetes, from Table 1
Text: as §1

Solubility = assay type: physicochemical

`N=C1C=CCC(C(=O)O)N1` (stereo not shown) [hydrochloride of substance SF 2698] gave an MIC [1] of 0.2 µg/mL, an MIC [2] of 0.78 µg/mL and an MIC (Candida utilis M9007) of 12.5 µg/mL. The MIC [3] was over 100 µg/mL, the MIC (Candida albicans M9001) was over 100 µg/mL and the case of death (mice) was “no case of death”. For the same molecule, the antimicrobial activity (eumycetes) was “exhibits antimicrobial activity against certain kinds of eumycetes”, the Solubility (Solubility; in methanol) was “soluble” and the Solubility (Solubility; in organic solvents, e.g., ethyl acetate) was “insoluble”. For the same molecule, the Solubility (Solubility; in water) was “soluble”.
